Data from patent US8048879B2, “Substituted 4,5,6,7-tetrahydro-isoxazolo[4,5-c]pyridine compounds and use thereof for producing medicaments” (Gruenenthal GmbH, priority 2005, dated 2011).

The compounds below were run on batrachotoxin (BTX) binding site of the sodium channel (assay: Affinity for the batrachotoxin (BTX) binding site of the sodium channel, [3H]-batrachotoxinin A20 α-benzoate, rat cerebrocortex synaptosomes). Conditions: test concentration not given.
In the case of `O=C(c1noc2c1CN(S(=O)(=O)c1ccc(Cl)c(Cl)c1)CC2)N1CCN(c2nccs2)CC1` [Example 140, (5-(3,4-dichlorophenylsulfonyl)-4,5,6,7-tetrahydroisoxazolo[4,5-c]pyridin-3-yl)(4-(thiazol-2-yl)piperazin-1-yl)methanone], the “BTX inhibition (rat) % inhibition” value is reported as 55%. With `Cc1cc(C)c(S(=O)(=O)N2CCc3onc(C(=O)N4CCN(c5nccs5)CC4)c3C2)c(C)c1` [Example 141, (5-(mesitylsulfonyl)-4,5,6,7-tetrahydroisoxazolo[4,5-c]pyridin-3-yl)(4-(thiazol-2-yl)piperazin-1-yl)methanone] the “BTX inhibition (rat) % inhibition” value was 67%. In the case of `O=C(c1noc2c1CN(S(=O)(=O)c1cccc3ccccc13)CC2)N1CCN(c2nccs2)CC1` [Example 142, (5-(naphthalen-1-ylsulfonyl)-4,5,6,7-tetrahydroisoxazolo[4,5-c]pyridin-3-yl)(4-(thiazol-2-yl)piperazin-1-yl)methanone], the “BTX inhibition (rat) % inhibition” value is reported as 54%. In the case of `O=C(c1noc2c1CN(S(=O)(=O)c1ccc3ccccc3c1)CC2)N1CCN(c2nccs2)CC1` [Example 143, (5-(naphthalen-2-ylsulfonyl)-4,5,6,7-tetrahydroisoxazolo[4,5-c]pyridin-3-yl)(4-(thiazol-2-yl)piperazin-1-yl)methanone], the “BTX inhibition (rat) % inhibition” value is reported as 48%. With `Cc1cc(C)c(S(=O)(=O)N2CCc3onc(C(=O)N4CCC(CCN5CCCC5)CC4)c3C2)c(C)c1` [Example 146, (5-(mesitylsulfonyl)-4,5,6,7-tetrahydroisoxazolo[4,5-c]pyridin-3-yl)(4-(2-(pyrrolidin-1-yl)ethyl)piperidin-1-yl)methanone] the “BTX inhibition (rat) % inhibition” value was 81%. With `O=C(c1noc2c1CN(S(=O)(=O)c1ccc(Cl)c(Cl)c1)CC2)N1CCC(CCN2CCCC2)CC1` [Example 147, (5-(3,4-dichlorophenylsulfonyl)-4,5,6,7-tetrahydroisoxazolo[4,5-c]pyridin-3-yl)(4-(2-(pyrrolidin-1-yl)ethyl)piperidin-1-yl)methanone] the “BTX inhibition (rat) % inhibition” value was 70%. In the case of `O=C(c1noc2c1CN(S(=O)(=O)c1ccc3ccccc3c1)CC2)N1CCC(CCN2CCCC2)CC1` [Example 148, (5-(naphthalen-2-ylsulfonyl)-4,5,6,7-tetrahydroisoxazolo[4,5-c]pyridin-3-yl)(4-(2-(pyrrolidin-1-yl)ethyl)piperidin-1-yl)methanone], the “BTX inhibition (rat) % inhibition” value is reported as 74%. With `Cl.O=C(c1noc2c1CN(S(=O)(=O)c1cccc3ccccc13)CC2)N1CCC(CCN2CCCC2)CC1` [Example 149, (5-(Naphthalene-1-ylsulfonyl)-4,5,6,7-tetrahydroisoxazolo[4,5-c]pyridin-3-yl)(4-(2-(pyrrolidin-1-yl)ethyl)piperidin-1-yl)methanone hydrochloride] the “BTX inhibition (rat) % inhibition” value was 86%. In the case of `CC(NC(=O)N1CCc2onc(C(=O)NCc3ccccc3)c2C1)c1ccccc1` (stereo not shown) [Example 150, N^3-benzyl-N^5-(1-phenylethyl)-6,7-dihydroisoxazolo[4,5-c]pyridine-3,5(4H)-dicarboxamide], the “BTX inhibition (rat) % inhibition” value is reported as 49%. For `COc1ccc(NC(=O)N2CCc3onc(C(=O)NCc4ccccc4)c3C2)cc1` [Example 151, N^3-benzyl-N^5-(4-methoxyphenyl)-6,7-dihydroisoxazolo[4,5-c]pyridine-3,5(4H)-dicarboxamide], the “BTX inhibition (rat) % inhibition” value was 36%. For `Cc1ccc(NC(=O)c2noc3c2CN(S(=O)(=O)c2ccc(C)cc2)CC3)cc1` [Example 152, N-p-tolyl-5-tosyl-4,5,6,7-tetrahydroisoxazolo[4,5-c]pyridine-3-carboxamide], the “BTX inhibition (rat) % inhibition” value was 29%. For `COCCNC(=O)c1noc2c1CN(C(=O)c1ccc(C(F)(F)F)c(F)c1)CC2` [Example 153, 5-(3-fluoro-4-(trifluoromethyl)benzoyl)-N-(2-methoxyethyl)-4,5,6,7-tetrahydroisoxazolo[4,5-c]pyridine-3-carboxamide], the “BTX inhibition (rat) % inhibition” value was 28%. With `COc1ccc(NC(=O)N2CCc3onc(C(=O)NCc4ccc(S(N)(=O)=O)cc4)c3C2)cc1` [Example 154, N^5-(4-methoxyphenyl)-N^3-(4-sulfamoylbenzyl)-6,7-dihydroisoxazolo[4,5-c]pyridine-3,5(4H)-dicarboxamide] the “BTX inhibition (rat) % inhibition” value was 4%. With `O=C(NCCN1CCCC1)c1noc2c1CN(C(=O)COc1cccc(Cl)c1)CC2` [Example 155, 5-(2-(3-chlorophenoxy)acetyl)-N-(2-(pyrrolidin-1-yl)ethyl)-4,5,6,7-tetrahydroisoxazolo[4,5-c]pyridine-3-carboxamide] the “BTX inhibition (rat) % inhibition” value was 64%. In the case of `O=C(Nc1ccccc1)c1noc2c1CN(C(=O)c1ccccc1F)CC2` [Example 156, 5-(2-fluorobenzoyl)-N-phenyl-4,5,6,7-tetrahydroisoxazolo[4,5-c]pyridine-3-carboxamide], the “BTX inhibition (rat) % inhibition” value is reported as 26%. In the case of `Cc1ccc(S(=O)(=O)N2CCc3onc(C(=O)NCc4ccc(S(N)(=O)=O)cc4)c3C2)cc1` [Example 157, N-(4-sulfamoylbenzyl)-5-tosyl-4,5,6,7-tetrahydroisoxazolo[4,5-c]pyridine-3-carboxamide], the “BTX inhibition (rat) % inhibition” value is reported as 17%.
